In patent US20080064718A1, “INHIBITORS OF PROTEIN TYROSINE KINASE ACTIVITY” (priority 2006, published 2008):
Where two headings read alike, the source gives them in different places.

Experiments:
[1] = target: T1, c-Met (Homo sapiens, UniProt P08581); assay: c-Met phosphorylation direct ELISA in MKN45 cells; format: cell-based; conditions: 3 h treatment
T1 construct: endogenous in cells; host or cells: MKN45 gastric carcinoma cells
Description: Alternatively, the following assay is used to determine inhibition of c-Met phosphorylation.
The c-Met receptor is expressed in numerous cancer cell lines derived from tumors of epithelial origin. In MKN45 gastric carcinoma cells the c-Met gene is amplified, resulting in several-fold overexpression of the receptor and its constitutive activation.
Cell treatments: MKN45 cells are seeded into wells of 96-well plates at a density of 3×10^4 cells/well in RPMI medium supplemented with 10% FBS. […] Inhibitors are added to the medium in triplicate wells at the indicated doses.
After an overnight protein binding incubation at 4° C., lysates are aspirated and wells are blocked for 1 h at 37° C. in TBST supplemented with 5% BSA. Plates are incubated with the primary antibodies anti-phospho-Tyrosine (Millipore, 4G10) diluted 1/15000 in TBST supplemented with 5% BSA for 1 h at room temperature. Plates are washed 3 times on a plate washer (SkanWasher, Molecular Devises), and incubated with the reporter antibody […] (Sigma) diluted 1/15000 in TBST supplemented with 5% BSA, for 1 h at room temperature. Plates are washed 3 times with TBST using on a plate washer and subsequently incubated with chemiluminescent substrate solution (ECL, Roche). Luminescence signal is captured on a Polar Star Optima apparatus (BMG LabTech).
Average values of the triplicate samples are used to prepare IC50 curves using a 4-parameter fit model. These curves are calculated using, for example, GraFit 5.0 software. For assay standardization purpose, an internal control is included on each experimental test plate.

[2] = tested on: DU145; assay: DU145 scattering; format: cell-based; conditions: DU145 cells, read-out: CMET DU145 SCATT HEAL- IC50 UM
[3] = tested on: A549; assay: A549 inhibition of wound healing; format: cell-based; conditions: read-out: A549 INHIB WND ING IC50 UM
[4] = target: T2, VEGF receptor KDR (Homo sapiens, UniProt P35968); assay: In vitro receptor tyrosine kinase assay, VEGF receptor KDR (DELFIA); format: biochemical; conditions: GST-VEGFR2 806-1356, ATP 0.6 uM
T2 construct: made in house; host or cells: Sf9 cells (Spodoptera frugiperda), recombinant baculovirus
Description: In the case of VEGF receptor KDR a 1.6-kb cDNA corresponding to the catalytic domain of VEGFR2 or KDR (Genbank accession number AF035121 amino acid 806 to 1356) is cloned into the Pst I site of the pDEST20 Gateway vector (Invitrogen) for the production of a GST-tagged version of that enzyme.
The GST-VEGFR2806-1356 protein is expressed in Sf9 cells (Spodoptera frugiperda) upon infection with recombinant baculovirus construct.
The supernatant is loaded onto a GST-agarose column (Sigma) equilibrated with PBS pH 7.3. Following a four column volume (CV) wash with PBS pH 7.3+1% Triton X-100 and 4 CV wash with buffer B (50 mM Tris pH 8.0, 20% glycerol and 100 mM NaCl), bound proteins are step eluted with 5 CV of buffer B supplemented with 5 mM DTT and 15 mM glutathion. […] Final GST-VEGFR2806-1356 protein preparations concentrations are about 0.7 mg/ml with purity approximating 70%.

[5] = target: recombinant human c-Met/HGF receptor (Homo sapiens, UniProt P08581); assay: In vitro receptor tyrosine kinase assay, c-Met/HGF receptor (DELFIA)
Sequence of recombinant human c-Met/HGF receptor (P08581 1078-1337): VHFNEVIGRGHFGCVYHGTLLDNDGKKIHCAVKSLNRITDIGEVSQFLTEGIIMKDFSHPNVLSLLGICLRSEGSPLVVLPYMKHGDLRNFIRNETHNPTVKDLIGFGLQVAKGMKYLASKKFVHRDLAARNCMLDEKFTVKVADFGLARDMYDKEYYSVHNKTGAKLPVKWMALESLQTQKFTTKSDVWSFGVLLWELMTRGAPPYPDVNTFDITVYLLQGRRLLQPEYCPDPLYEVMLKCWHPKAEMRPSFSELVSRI

T1 sequence (P08581 25-1390): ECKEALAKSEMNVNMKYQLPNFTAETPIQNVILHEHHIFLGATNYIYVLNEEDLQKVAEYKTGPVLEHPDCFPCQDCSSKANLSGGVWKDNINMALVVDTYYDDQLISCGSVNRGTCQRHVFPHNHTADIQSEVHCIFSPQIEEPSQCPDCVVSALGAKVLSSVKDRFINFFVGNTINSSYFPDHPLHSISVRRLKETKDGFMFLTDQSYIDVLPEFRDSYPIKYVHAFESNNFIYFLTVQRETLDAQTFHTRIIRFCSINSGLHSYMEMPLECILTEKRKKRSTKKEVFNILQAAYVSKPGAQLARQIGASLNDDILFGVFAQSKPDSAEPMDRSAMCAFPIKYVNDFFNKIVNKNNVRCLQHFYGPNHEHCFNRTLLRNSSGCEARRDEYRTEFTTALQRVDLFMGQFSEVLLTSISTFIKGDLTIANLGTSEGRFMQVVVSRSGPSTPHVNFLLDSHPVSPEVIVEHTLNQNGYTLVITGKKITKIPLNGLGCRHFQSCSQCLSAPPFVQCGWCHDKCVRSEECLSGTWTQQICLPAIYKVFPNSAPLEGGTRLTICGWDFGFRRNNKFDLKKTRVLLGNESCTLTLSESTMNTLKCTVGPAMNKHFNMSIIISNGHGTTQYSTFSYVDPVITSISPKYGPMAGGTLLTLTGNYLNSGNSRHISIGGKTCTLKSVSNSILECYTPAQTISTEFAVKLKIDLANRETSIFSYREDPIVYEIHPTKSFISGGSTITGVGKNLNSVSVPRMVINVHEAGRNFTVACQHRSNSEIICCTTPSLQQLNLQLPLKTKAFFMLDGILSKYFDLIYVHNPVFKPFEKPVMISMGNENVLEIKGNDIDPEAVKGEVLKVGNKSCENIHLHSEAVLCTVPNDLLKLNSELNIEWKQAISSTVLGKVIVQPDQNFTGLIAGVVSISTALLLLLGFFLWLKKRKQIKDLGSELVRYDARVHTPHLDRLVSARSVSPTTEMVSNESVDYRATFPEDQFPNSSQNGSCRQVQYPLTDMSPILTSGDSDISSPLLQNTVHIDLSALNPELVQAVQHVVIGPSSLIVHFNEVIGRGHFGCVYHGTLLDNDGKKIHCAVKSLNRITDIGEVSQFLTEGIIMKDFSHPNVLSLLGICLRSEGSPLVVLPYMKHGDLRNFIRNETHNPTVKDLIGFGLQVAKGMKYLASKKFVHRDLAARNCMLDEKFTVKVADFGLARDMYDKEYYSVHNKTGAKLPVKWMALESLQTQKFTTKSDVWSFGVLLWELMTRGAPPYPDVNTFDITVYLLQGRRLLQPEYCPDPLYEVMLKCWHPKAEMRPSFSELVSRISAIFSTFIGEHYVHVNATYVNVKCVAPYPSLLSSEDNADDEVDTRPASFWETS
T2 sequence (P35968 806-1356): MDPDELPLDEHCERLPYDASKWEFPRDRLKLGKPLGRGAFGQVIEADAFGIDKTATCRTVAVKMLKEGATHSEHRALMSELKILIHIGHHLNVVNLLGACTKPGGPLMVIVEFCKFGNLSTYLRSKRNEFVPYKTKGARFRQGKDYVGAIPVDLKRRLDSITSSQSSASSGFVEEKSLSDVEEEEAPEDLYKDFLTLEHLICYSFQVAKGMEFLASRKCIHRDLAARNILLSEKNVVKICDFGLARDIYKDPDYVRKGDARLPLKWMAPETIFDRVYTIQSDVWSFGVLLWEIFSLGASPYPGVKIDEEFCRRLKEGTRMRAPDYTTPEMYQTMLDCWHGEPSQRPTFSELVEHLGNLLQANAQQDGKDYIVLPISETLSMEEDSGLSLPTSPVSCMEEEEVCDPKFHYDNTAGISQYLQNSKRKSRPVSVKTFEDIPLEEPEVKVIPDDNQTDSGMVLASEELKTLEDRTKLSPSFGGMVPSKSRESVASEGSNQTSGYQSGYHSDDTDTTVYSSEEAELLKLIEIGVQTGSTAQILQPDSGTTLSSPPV

O=C(Nc1ccc(Oc2ccnc3cc(-c4ccc(CNC5CC5)cc4)sc23)c(F)c1)N1CCN(c2ccccc2)C1=O
IC50 [1]: < 0.25 µM | IC50 ([2]; Homo sapiens, DU-145): < 0.25 µM | IC50 ([3]; Homo sapiens, A549 cells): 0.25 to 0.5 µM | IC50 ([4]; read-out: VEGFR IC50): < 0.25 µM | IC50 [5]: < 0.25 µM

COCCNCc1ccc(-c2cc3nccc(Oc4ccc(NC(=O)c5cnn(-c6ccccc6)c5C(F)(F)F)cc4F)c3s2)nc1
IC50 [1]: 0.25 to 0.5 µM | IC50 ([2]; Homo sapiens, DU-145): 0.25 to 0.5 µM | IC50 ([3]; Homo sapiens, A549 cells): 0.25 to 0.5 µM | IC50 ([4]; read-out: VEGFR IC50): > 1 µM | IC50 [5]: < 0.25 µM

CN(C)CC(=O)N1CC=C(c2cc3nccc(Oc4ccc(NC(=O)N5CCN(c6ccccc6)C5=O)cc4F)c3s2)CC1
IC50 [1]: < 0.25 µM | IC50 ([2]; Homo sapiens, DU-145): < 0.25 µM | IC50 ([3]; Homo sapiens, A549 cells): < 0.25 µM | IC50 ([4]; read-out: VEGFR IC50): < 0.25 µM | IC50 [5]: < 0.25 µM

O=C(O)c1ccc(-c2cc3nccc(Oc4ccc(NC(=O)c5cnn(-c6ccccc6)c5C(F)(F)F)cc4F)c3s2)nc1
IC50 [1]: > 1 µM | IC50 ([2]; Homo sapiens, DU-145): > 1 µM | IC50 ([3]; Homo sapiens, A549 cells): > 1 µM | IC50 ([4]; read-out: VEGFR IC50): > 1 µM | IC50 [5]: < 0.25 µM

O=C(Nc1ccc(Oc2ccnc3cc(-c4ccc(CNCC(F)(F)F)cc4)sc23)c(F)c1)N1CCN(c2ccccc2)C1=O
IC50 [1]: 0.5 to 1 µM | IC50 ([2]; Homo sapiens, DU-145): > 1 µM | IC50 ([3]; Homo sapiens, A549 cells): > 1 µM | IC50 ([4]; read-out: VEGFR IC50): 0.25 to 0.5 µM

O=C(Nc1ccc(Oc2ccnc3cc(-c4cnn(C5CCNCC5)c4)sc23)c(F)c1)N1CCN(c2ccccc2)C1=O
IC50 [1]: < 0.25 µM | IC50 ([2]; Homo sapiens, DU-145): 0.25 to 0.5 µM | IC50 ([3]; Homo sapiens, A549 cells): > 1 µM | IC50 ([4]; read-out: VEGFR IC50): < 0.25 µM | IC50 [5]: < 0.25 µM

Cn1ccnc1-c1cc2nccc(Oc3ccc(NC(=O)c4cccc(-c5ccccc5)c4F)cc3F)c2s1
IC50 [1]: 0.5 to 1 µM | IC50 ([2]; Homo sapiens, DU-145): > 1 µM | IC50 ([3]; Homo sapiens, A549 cells): 0.25 to 0.5 µM | IC50 ([4]; read-out: VEGFR IC50): < 0.25 µM | IC50 [5]: < 0.25 µM

O=C(NNC(=O)c1ccccc1)Nc1ccc(Oc2ccnc3cc(C4=CCNCC4)sc23)c(F)c1
IC50 [1]: > 1 µM | IC50 ([2]; Homo sapiens, DU-145): > 1 µM | IC50 ([3]; Homo sapiens, A549 cells): > 1 µM | IC50 ([4]; read-out: VEGFR IC50): < 0.25 µM | IC50 [5]: 0.25 to 0.5 µM

CN(C)C(=O)c1ccc(-c2cc3nccc(Oc4ccc(NC(=O)c5cnn(-c6ccc(F)cc6)c5C(F)(F)F)cc4F)c3s2)cc1
IC50 ([2]; Homo sapiens, DU-145): > 1 µM | IC50 ([3]; Homo sapiens, A549 cells): > 1 µM | IC50 ([4]; read-out: VEGFR IC50): > 1 µM | IC50 [5]: < 0.25 µM

COCCN(C)C(=O)c1ccc(-c2cc3nccc(Oc4ccc(NC(=O)c5cnn(-c6ccccc6)c5C(F)(F)F)cc4F)c3s2)nc1
IC50 ([2]; Homo sapiens, DU-145): > 1 µM | IC50 ([3]; Homo sapiens, A549 cells): 0.25 to 0.5 µM | IC50 ([4]; read-out: VEGFR IC50): > 1 µM | IC50 [5]: < 0.25 µM

COCCNC(=O)c1ccc(-c2cc3nccc(Oc4ccc(NC(=O)c5cnn(-c6ccccc6)c5C(F)(F)F)cc4F)c3s2)nc1
IC50 ([2]; Homo sapiens, DU-145): > 1 µM | IC50 ([3]; Homo sapiens, A549, A549 cells): > 1 µM | IC50 ([4]; read-out: VEGFR IC50): > 1 µM

Cn1cnc(-c2cc3nccc(Oc4ccc(NC(=O)c5cnn(C)c5C(F)(F)F)cc4F)c3s2)c1
IC50 ([2]; Homo sapiens, DU-145): > 1 µM | IC50 ([3]; Homo sapiens, A549 cells): > 1 µM | IC50 ([4]; read-out: VEGFR IC50): 0.5 to 1 µM | IC50 [5]: < 0.25 µM

CS(=O)(=O)CCNCc1ccc(-c2cc3nccc(Oc4ccc(NC(=O)N5CCN(c6ccccc6)C5=O)cc4F)c3s2)cc1
IC50 [1]: < 0.25 µM | IC50 ([2]; Homo sapiens, DU-145): 0.25 to 0.5 µM | IC50 ([3]; Homo sapiens, A549 cells): > 1 µM | IC50 ([4]; read-out: VEGFR IC50): < 0.25 µM | IC50 [5]: < 0.25 µM

CN(C)C(=O)c1ccc(-c2cc3nccc(Oc4ccc(NC(=O)c5cnn(-c6ccccc6)c5C(F)(F)F)cc4F)c3s2)cc1
IC50 ([2]; Homo sapiens, DU-145): 0.25 to 0.5 µM | IC50 ([3]; Homo sapiens, A549, A549 cells): < 0.25 µM | IC50 ([4]; read-out: VEGFR IC50): > 1 µM

Cn1cnc(-c2cc3nccc(Oc4ccc(NC(=O)CC(Nc5ccccc5)C(F)(F)F)cc4F)c3s2)c1 (stereo not shown) [Compound 12, 4,4,4-Trifluoro-N-(3-fluoro-4-(2-(1-methyl-1H-imidazol-4-yl)thieno[3,2-b]pyridin-7-yloxy)phenyl)-3-(phenylamino)butanamide]
IC50 ([4]; read-out: VEGFR (IC50)): < 0.25 µM

Cn1cnc(-c2cc3nccc(Oc4ccc(NC(=O)c5cnn(-c6ccccc6)c5)cc4F)c3s2)c1 [drawing 202]
IC50 [2]: > 1 µM | IC50 ([3]; A549 cells): > 1 µM | IC50 ([4]; read-out: VEGFR IC50): 0.5 to 1 µM

Cn1ccnc1-c1cc2nccc(Oc3ccc(NC(=O)c4cnn(-c5ccccc5)c4C(F)(F)F)cc3F)c2s1
IC50 ([2]; Homo sapiens, DU-145): > 1 µM | IC50 ([3]; Homo sapiens, A549, A549 cells): > 1 µM | IC50 ([4]; read-out: VEGFR IC50): > 1 µM

CCOC(=O)c1ccc(-c2cc3nccc(Oc4ccc(NC(=O)c5cnn(-c6ccccc6)c5C(F)(F)F)cc4F)c3s2)cc1
IC50 ([2]; Homo sapiens, DU-145): > 1 µM | IC50 ([3]; Homo sapiens, A549 cells): > 1 µM | IC50 ([4]; read-out: VEGFR IC50): > 1 µM | IC50 [5]: > 1 µM
